Assay results as given in ChEMBL document CHEMBL3525902, “In vitro metabolism of oxymetazoline: evidence for bioactivation to a reactive metabolite” (Drug Metab Dispos, 2011).

How the values were obtained:
Cytochrome P450 2C19 = Cytochrome P450 2C19 (Homo sapiens, UniProt P33261); experiment: Activity of human recombinant CYP2C19 assessed as 3-((1H-imidazol-2-yl)methyl)-6-(1-hydroxy-2-methylpropan-2-yl)-2,4-dimethylphenol formation at 50 uM in presence of NADPH by LC-MS/MS method; assay type: ADME; conditions: recombinant enzyme
Liver microsome = experiment: Drug metabolism in NADPH supplemented rat liver microsomes fraction assessed as 3-((4,5-dihydro-1H-imidazol-2-yl)methyl)-6-(1-hydroxy-2-methylpropan-2-yl)-2,4-dimethylphenol formation at 50 uM after 1 hr by LC-MS/MS method; assay type: ADME
Cytochrome P450 2B6 = target: T1, Cytochrome P450 2B6 (Homo sapiens, UniProt P20813); experiment: Activity of human recombinant CYP2B6 assessed as metabolite formation at 50 uM in presence of NADPH by LC-MS/MS method; assay type: ADME; conditions: recombinant enzyme
T1 sequence (P20813 whole entry): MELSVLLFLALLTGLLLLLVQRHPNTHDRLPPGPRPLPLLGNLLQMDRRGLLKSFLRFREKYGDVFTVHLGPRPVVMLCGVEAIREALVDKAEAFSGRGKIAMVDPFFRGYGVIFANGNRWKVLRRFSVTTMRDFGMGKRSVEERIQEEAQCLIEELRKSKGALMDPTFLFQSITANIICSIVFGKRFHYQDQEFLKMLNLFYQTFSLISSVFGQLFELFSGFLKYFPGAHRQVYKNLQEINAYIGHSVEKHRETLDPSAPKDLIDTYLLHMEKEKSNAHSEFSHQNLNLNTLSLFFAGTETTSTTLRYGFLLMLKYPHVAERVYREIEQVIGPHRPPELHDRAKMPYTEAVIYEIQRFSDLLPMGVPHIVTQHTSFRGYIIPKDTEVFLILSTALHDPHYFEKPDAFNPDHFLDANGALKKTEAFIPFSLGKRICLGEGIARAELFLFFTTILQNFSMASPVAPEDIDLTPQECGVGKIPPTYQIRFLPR

[1] = Drug metabolism in NADPH supplemented rabbit liver S9 fraction assessed as 3-((1H-imidazol-2-yl)methyl)-6-(1-hydroxy-2-methylpropan-2-yl)-2,4-dimethylphenol formation at 50 uM in presence of glutathione by LC-MS/MS method; assay type: ADME, subcellular, Oryctolagus cuniculus; conditions: s9, 50 µM
Cytochrome P450 2D6 = Cytochrome P450 2D6 (Homo sapiens, UniProt P10635); experiment: Activity of human recombinant CYP2D6 assessed as metabolite formation at 50 uM in presence of NADPH by LC-MS/MS method; assay type: ADME; conditions: recombinant enzyme
[2] = Drug metabolism in NADPH supplemented rabbit liver microsomes fraction assessed as 3-((1H-imidazol-2-yl)methyl)-6-(1-hydroxy-2-methylpropan-2-yl)-2,4-dimethylphenol formation at 50 uM after 1 hr by LC-MS/MS method; assay type: ADME, Oryctolagus cuniculus
Cytochrome P450 2C9 = Cytochrome P450 2C9 (Homo sapiens, UniProt P11712); experiment: Activity of human recombinant CYP2C9 assessed as metabolite formation at 50 uM in presence of NADPH by LC-MS/MS method; assay type: ADME; conditions: recombinant enzyme
[3] = Drug metabolism in NADPH supplemented human liver S9 fraction assessed as 3-((1H-imidazol-2-yl)methyl)-6-(1-hydroxy-2-methylpropan-2-yl)-2,4-dimethylphenol formation at 50 uM in presence of glutathione by LC-MS/MS method; assay type: ADME, subcellular; conditions: s9, 50 µM
Cytochrome P450 2C18 = target: T2, Cytochrome P450 2C18 (Homo sapiens, UniProt P33260); experiment: Activity of human recombinant CYP2C18 assessed as metabolite formation at 50 uM in presence of NADPH by LC-MS/MS method; assay type: ADME; conditions: recombinant enzyme
T2 sequence (P33260 whole entry): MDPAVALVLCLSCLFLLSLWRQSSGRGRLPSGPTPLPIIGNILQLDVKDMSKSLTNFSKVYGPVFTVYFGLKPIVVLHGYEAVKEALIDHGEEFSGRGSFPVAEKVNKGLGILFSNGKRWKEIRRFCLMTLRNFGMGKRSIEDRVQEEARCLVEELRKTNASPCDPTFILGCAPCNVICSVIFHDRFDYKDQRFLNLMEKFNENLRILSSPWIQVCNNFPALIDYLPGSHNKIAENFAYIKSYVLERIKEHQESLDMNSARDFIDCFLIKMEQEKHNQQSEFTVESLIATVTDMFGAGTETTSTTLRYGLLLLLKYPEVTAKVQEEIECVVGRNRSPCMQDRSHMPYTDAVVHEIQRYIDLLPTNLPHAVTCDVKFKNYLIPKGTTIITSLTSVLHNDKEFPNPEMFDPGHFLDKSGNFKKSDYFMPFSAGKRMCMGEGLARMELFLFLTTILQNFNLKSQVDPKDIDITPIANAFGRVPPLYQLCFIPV

Cytochrome P450 2E1 = Cytochrome P450 2E1 (Homo sapiens, UniProt P05181); experiment: Activity of human recombinant CYP2E1 assessed as metabolite formation at 50 uM in presence of NADPH by LC-MS/MS method; assay type: ADME; conditions: recombinant enzyme
[4] = Drug metabolism in NADPH supplemented rat liver S9 fraction assessed as 3-((1H-imidazol-2-yl)methyl)-6-(1-hydroxy-2-methylpropan-2-yl)-2,4-dimethylphenol formation at 50 uM in presence of glutathione by LC-MS/MS method; assay type: ADME, subcellular; conditions: s9, 50 µM

Measured: Drug metabolism

Chain of Cytochrome P450 2D6 (P10635 whole entry): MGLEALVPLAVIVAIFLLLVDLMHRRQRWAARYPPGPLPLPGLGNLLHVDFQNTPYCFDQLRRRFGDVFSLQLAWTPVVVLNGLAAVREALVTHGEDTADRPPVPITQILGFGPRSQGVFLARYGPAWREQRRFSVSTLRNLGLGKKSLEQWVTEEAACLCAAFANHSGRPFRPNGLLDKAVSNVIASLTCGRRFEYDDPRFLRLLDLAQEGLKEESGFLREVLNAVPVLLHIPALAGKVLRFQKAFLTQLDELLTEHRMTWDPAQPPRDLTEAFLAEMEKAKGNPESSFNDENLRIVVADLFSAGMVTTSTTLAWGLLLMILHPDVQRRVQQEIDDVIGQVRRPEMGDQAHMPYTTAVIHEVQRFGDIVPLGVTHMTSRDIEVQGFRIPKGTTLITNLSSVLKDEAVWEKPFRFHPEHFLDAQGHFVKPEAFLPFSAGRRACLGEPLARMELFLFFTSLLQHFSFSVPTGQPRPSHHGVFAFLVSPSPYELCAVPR
Chain of Cytochrome P450 2C19 (P33261 whole entry): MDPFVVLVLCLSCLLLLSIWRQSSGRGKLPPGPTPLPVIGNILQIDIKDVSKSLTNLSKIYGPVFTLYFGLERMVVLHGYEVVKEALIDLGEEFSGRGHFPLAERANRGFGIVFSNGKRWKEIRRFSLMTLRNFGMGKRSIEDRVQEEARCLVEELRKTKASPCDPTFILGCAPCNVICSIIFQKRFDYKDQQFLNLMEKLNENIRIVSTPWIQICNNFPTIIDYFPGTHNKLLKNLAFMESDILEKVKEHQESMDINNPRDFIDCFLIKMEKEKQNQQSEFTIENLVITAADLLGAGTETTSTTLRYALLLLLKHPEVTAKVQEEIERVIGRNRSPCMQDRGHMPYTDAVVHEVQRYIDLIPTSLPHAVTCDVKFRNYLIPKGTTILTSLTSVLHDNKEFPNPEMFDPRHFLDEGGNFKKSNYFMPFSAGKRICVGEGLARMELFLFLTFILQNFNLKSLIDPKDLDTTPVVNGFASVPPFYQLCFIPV
Chain of Cytochrome P450 2C9 (P11712 whole entry): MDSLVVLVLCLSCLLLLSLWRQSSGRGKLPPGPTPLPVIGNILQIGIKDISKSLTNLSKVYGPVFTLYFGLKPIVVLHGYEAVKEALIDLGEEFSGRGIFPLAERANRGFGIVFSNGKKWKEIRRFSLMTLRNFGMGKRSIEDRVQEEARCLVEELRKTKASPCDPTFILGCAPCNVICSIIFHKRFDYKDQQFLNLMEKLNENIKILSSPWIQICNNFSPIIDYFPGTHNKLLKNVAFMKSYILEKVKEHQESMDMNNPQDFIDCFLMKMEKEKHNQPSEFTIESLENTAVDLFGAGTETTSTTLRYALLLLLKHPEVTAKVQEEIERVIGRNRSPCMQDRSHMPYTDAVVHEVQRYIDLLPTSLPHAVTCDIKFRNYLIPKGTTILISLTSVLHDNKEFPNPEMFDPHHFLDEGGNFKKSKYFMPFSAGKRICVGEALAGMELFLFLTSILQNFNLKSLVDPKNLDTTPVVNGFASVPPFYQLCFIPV
Chain of Cytochrome P450 2E1 (P05181 whole entry): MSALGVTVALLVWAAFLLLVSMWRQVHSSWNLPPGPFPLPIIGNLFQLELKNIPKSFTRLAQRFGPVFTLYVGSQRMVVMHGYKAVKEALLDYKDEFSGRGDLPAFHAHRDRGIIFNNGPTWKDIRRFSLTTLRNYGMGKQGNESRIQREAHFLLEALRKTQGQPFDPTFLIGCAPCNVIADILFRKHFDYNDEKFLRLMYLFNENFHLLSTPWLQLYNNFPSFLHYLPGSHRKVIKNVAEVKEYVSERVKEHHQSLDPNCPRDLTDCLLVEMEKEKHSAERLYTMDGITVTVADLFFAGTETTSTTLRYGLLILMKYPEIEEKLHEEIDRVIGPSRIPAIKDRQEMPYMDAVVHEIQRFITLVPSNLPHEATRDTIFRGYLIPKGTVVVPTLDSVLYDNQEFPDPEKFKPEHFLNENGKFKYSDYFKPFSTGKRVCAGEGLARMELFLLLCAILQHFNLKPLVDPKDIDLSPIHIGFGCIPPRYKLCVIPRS

Cc1cc(C(C)(C)C)c(O)c(C)c1CC1=NCCN1 [OXYMETAZOLINE]
metabolite_not_detected: Cytochrome P450 2B6 | Cytochrome P450 2D6 | Cytochrome P450 2C9 | Cytochrome P450 2C18 | Cytochrome P450 2E1
metabolite_detected: all other assays above
